From US8486991B2, “Enantiomerically pure phosphoindoles as HIV inhibitors” (Idenix Pharmaceuticals, Inc., priority 2006, dated 2013)

What was measured:
[1] = Plasma protein binding by equilibrium dialysis, human; format: in vitro ADME
Method: The in vitro plasma protein binding of compound I and compound III in rat, dog, monkey and human plasma was determined by equilibrium dialysis. Protein binding was assessed by equilibrium dialysis using rat, dog, monkey and human plasma. Samples were assayed by HPLC with LC-MS/MS detection. Plasma protein binding was high (>99%) for all species and for both compounds.

[2] = In vitro half-life in liver microsomes, dog; format: in vitro ADME; conditions: up to one hour, longer half-lives are extrapolated, n=1
Method: (§1) In vitro metabolism was assessed using liver microsomes for all species. Compounds were incubated at 1 μM with liver microsomes for up to one hour. Reported half-lives greater than the total incubation time are extrapolated values. Extracts were assayed for disappearance of parent compound by LC-MS/MS detection.
(§2) Data represents one independent experiment conducted.

[3] = Compound depletion in hepatocytes, dog; format: in vitro ADME; conditions: up to 2 hours, read-out: t½, Compound Depletion in Hepatocytes, Dog
Method: (§3) Fresh hepatocytes were plated onto collagen-coated plates and exposed to test compounds at 1 μM for up to 2 hours. Tissue culture medium was assayed for compound depletion by LC/MS detection. Values in Table 23 represent independent experiments from 5 to 7 donors.

[4] = Compound depletion in hepatocytes, monkey; format: in vitro ADME; conditions: up to 2 hours, read-out: t½, Compound Depletion in Hepatocytes, Monkey
Method: as §3

[5] = test system: cynomolgus monkeys; assay: 14-day oral toxicity, monkeys; format: in vivo, cynomolgus monkey; conditions: for effects on food consumption or body weight: once daily oral gavage 14 days, up to 500 (I) or 450 (III) mg/kg/day
Method: (§4) Sprague-Dawley rats and cynomolgus monkeys were dosed once daily for 14 days via oral gavage with compound I or compound III or dose vehicle (68% Capmul PG-8, 20% PEG 400, 2% Tween 20, and 10% Labrasol) according to GLP. There were 10 male and 10 female rats, and there were 3 male and 3 female monkeys. Rats and monkeys were dosed with 0, 50, 150 or 500 mg/kg/day compound I or with 0, 50, 150, 450 mg/kg/day compound III.
(§5) Toxicity was assessed using clinical observations, body weights, food consumption, and clinical pathology (hematology, coagulation, and serum chemistry).
(§6) A comprehensive necropsy and gross pathological examination was performed on all animals and selected organs and tissues were collected for histological evaluation.
(§7) Determinations of hematocrit, hemoglobin concentration, erythrocyte count, total leukocyte count, and platelet count were conducted on all samples. Leukocyte differential and morphologic assessments were performed.
(§8) Clinical biochemistry determinations included activities of alanine aminotransferase (ALT), aspartate aminotransferase (AST), gamma-glutamyltranspeptidase (GGT), and alkaline phosphatase (ALP) and concentrations of blood urea nitrogen (BUN), creatinine, total protein, albumin, globulin, glucose, cholesterol, triglycerides, total bilirubin, and electrolyte levels (Na, K, P, Cl, Ca).
Urine samples (monkeys only) were evaluated macroscopically and microscopically and tested for pH, bilirubin, glucose, protein, ketones, blood, urobilinogen, nitrites, leukocytes, and specific gravity.

[6] = Compound depletion in hepatocytes, rat; format: in vitro ADME; conditions: up to 2 hours, read-out: t½, Compound Depletion in Hepatocytes, Rat
Method: as §3

[7] = molecular target: T1, CYP2B6 (Homo sapiens, UniProt P20813); assay: Human liver microsomal CYP450 inhibition, CYP2B6; conditions: for IC50, CYP2B6: human liver microsomes
T1 sequence (P20813 1-491): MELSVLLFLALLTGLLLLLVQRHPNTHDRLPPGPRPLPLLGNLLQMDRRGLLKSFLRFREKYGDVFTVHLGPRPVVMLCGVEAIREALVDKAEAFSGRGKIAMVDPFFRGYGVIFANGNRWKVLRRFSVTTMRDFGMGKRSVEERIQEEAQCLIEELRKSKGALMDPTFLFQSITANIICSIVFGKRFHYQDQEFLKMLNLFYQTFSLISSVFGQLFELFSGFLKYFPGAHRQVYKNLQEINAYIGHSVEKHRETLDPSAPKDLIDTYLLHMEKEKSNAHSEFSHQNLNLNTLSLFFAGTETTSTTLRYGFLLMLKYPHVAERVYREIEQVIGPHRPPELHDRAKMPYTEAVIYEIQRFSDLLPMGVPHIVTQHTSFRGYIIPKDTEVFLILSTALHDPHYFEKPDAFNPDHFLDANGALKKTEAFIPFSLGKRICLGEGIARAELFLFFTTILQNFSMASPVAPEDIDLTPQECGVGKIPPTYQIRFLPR
Method: In addition, the type of inhibition was also evaluated.
Enzyme kinetic studies of cytochrome P450 isozyme inhibition were conducted using human liver microsomes.

[8] = molecular target: T2, HIV-1 RT L1001/K103N (L100I/K103N) mutant enzyme (Human immunodeficiency virus type 1 group M subtype B, UniProt P03366, K702N/L699I); assay: biochemical; conditions: for Average Fold Changes ± Standard Deviation, L1001/K103N: Table 4
T2 construct: Antiviral in vitro activity against site-directed mutant HIV-1 RT enzymes
Excerpt: (§9) In Vitro Antiviral Activity Against Additional Mutant HIV RT Enzymes
(§10) The studies are summarized in the text that follows.

[9] = molecular target: T3, HIV-1 RT Y188L mutant enzyme (Human immunodeficiency virus type 1 group M subtype B, UniProt P03366, Y787L); assay: biochemical; conditions: for Average Fold Changes ± Standard Deviation, Y188L: Table 4
T3 construct: Antiviral in vitro activity against site-directed mutant HIV-1 RT enzymes
Excerpt: as §9, §10

[10] = molecular target: T4, HIV-1 RT M184V mutant enzyme (Human immunodeficiency virus type 1 group M subtype B, UniProt P03366, M783V); assay: biochemical; conditions: for Average Fold Changes ± Standard Deviation, M184V: Table 4
T4 construct: Antiviral in vitro activity against site-directed mutant HIV-1 RT enzymes
Excerpt: as §9, §10

[11] = molecular target: T5, HIV-1 RT V1081 (V108I) mutant enzyme (Human immunodeficiency virus type 1 group M subtype B, UniProt P03366, V707I); assay: biochemical; conditions: for Average Fold Changes ± Standard Deviation, V1081: Table 4
T5 construct: Antiviral in vitro activity against site-directed mutant HIV-1 RT enzymes
Excerpt: as §9, §10

[12] = molecular target: T6, HIV-1 RT V106M mutant enzyme (Human immunodeficiency virus type 1 group M subtype B, UniProt P03366, V705M); assay: biochemical; conditions: for Average Fold Changes ± Standard Deviation, V106M: Table 4
T6 construct: Antiviral in vitro activity against site-directed mutant HIV-1 RT enzymes
Excerpt: as §9, §10

[13] = molecular target: T7, HIV-1 RT L1001 (L100I) mutant enzyme (Human immunodeficiency virus type 1 group M subtype B, UniProt P03366, L699I); assay: biochemical; conditions: for Average Fold Changes ± Standard Deviation, L1001: Table 4
T7 construct: Antiviral in vitro activity against site-directed mutant HIV-1 RT enzymes
Excerpt: as §9, §10

[14] = molecular target: T8, HIV-1 RT E138K mutant enzyme (Human immunodeficiency virus type 1 group M subtype B, UniProt P03366, E737K); assay: biochemical; conditions: for Average Fold Changes ± Standard Deviation, E138K: Table 4
T8 construct: Antiviral in vitro activity against site-directed mutant HIV-1 RT enzymes
Excerpt: as §9, §10

[15] = test system: Sprague-Dawley rats; assay: 14-day oral toxicity, rats; format: in vivo, rat; conditions: for thyroid microscopic findings / effects on food consumption or body weight: rats; for thyroid microscopic findings: all dose groups except low dose compound III-treated females; for effects on food consumption or body weight: once daily oral gavage 14 days, up to 500 (I) or 450 (III) mg/kg/day
Method: as §4, §5, §6, §7, §8

[16] = In vitro half-life in liver microsomes, human; format: in vitro ADME; conditions: up to one hour, longer half-lives are extrapolated, n=1
Method: as §1, §2

[17] = fresh hepatocytes plated on collagen-coated plates

SMILES: CO[P@](=O)(c1cc(C)cc(/C=C/C#N)c1)c1c(C(N)=O)[nH]c2ccc(Cl)c(F)c12 [Compound I, (2-Carbamoyl-5-chloro-4-fluoro-1H-indol-3-yl)-[3-((E)-2-cyano-vinyl)-5-methyl-phenyl]-(R)-phosphinic acid methyl ester]
- Percentage Plasma Protein Binding, Humans [1]: 99.8%
- half-life at 1 μM ([2]; microsomes): 19.3 min
- half-life at 1 μM ([3]; hepatocytes): 28 ± 14 min
- half-life at 1 μM ([4]; hepatocytes): 63 ± 40 min
- effects on food consumption or body weight [5]: No effects
- half-life at 1 μM ([6]; hepatocytes): 33 ± 26 min
- IC50 [7]: > 20000 nM
- IC50, CYP2B6 [7]: not observed
- IC50 [8]: 430 ± 330 nM
- Average Fold Changes ± Standard Deviation, L1001/K103N [8]: 2.4 ± 1.2 fold
- IC50 [9]: 1250 ± 380 nM
- Average Fold Changes ± Standard Deviation, Y188L [9]: 6.0 ± 1.7 fold
- IC50 [10]: 290 ± 80 nM
- Average Fold Changes ± Standard Deviation, M184V [10]: 1.7 ± 0.5 fold
- IC50 [11]: 1200 ± 710 nM
- Average Fold Changes ± Standard Deviation, V1081 [11]: 4.0 ± 5.3 fold
- IC50 [12]: 230 ± 60 nM
- Average Fold Changes ± Standard Deviation, V106M [12]: 1.2 ± 0.5 fold
- IC50 [13]: 160 ± 30 nM
- Average Fold Changes ± Standard Deviation, L1001 [13]: 0.5 ± 0.2 fold
- IC50 [14]: 4670 ± 910 nM
- Average Fold Changes ± Standard Deviation, E138K [14]: 15.5 ± 6.8 fold
- thyroid microscopic findings [15]: minimal to mild thyroid follicular cell hypertrophy/hyperplasia
- effects on food consumption or body weight [15]: No effects
- half-life at 1 μM ([16]; microsomes): 121 min

SMILES: CO[P@](=O)(c1cc(C)cc(/C=C/C#N)c1)c1c(C(N)=O)[nH]c2ccc(Cl)cc12 [Compound III, (2-Carbamoyl-5-chloro-1H-indol-3-yl)-[3-((E)-2-cyano-vinyl)-5-methyl-phenyl]-(R)-phosphinic acid methyl ester]
- Percentage Plasma Protein Binding, Humans [1]: 99.9%
- half-life at 1 μM ([2]; liver microsomes): 13.2 min
- half-life at 1 μM [3, 17]: 21 ± 10 min
- half-life at 1 μM [4, 17]: 52 ± 24 min
- organ weights ([5]; mid and high doses, livers microscopically unremarkable): increased liver weights
- effects on food consumption or body weight [5]: No effects
- half-life at 1 μM [6, 17]: 17 ± 15 min
- IC50 [7]: > 20000 nM
- IC50, CYP2B6 [7]: not observed
- IC50 [8]: 400 ± 260 nM
- Average Fold Changes ± Standard Deviation, L1001/K103N [8]: 1.8 ± 0.8 fold
- IC50 [9]: 1150 ± 360 nM
- Average Fold Changes ± Standard Deviation, Y188L [9]: 7.0 ± 5.9 fold
- IC50 [10]: 170 ± 80 nM
- Average Fold Changes ± Standard Deviation, M184V [10]: 0.8 ± 0.3 fold
- IC50 [11]: 830 ± 350 nM
- Average Fold Changes ± Standard Deviation, V1081 [11]: 3.8 ± 3.8 fold
- IC50 [12]: 200 ± 60 nM
- Average Fold Changes ± Standard Deviation, V106M [12]: 1.0 ± 0.3 fold
- IC50 [13]: 130 ± 60 nM
- Average Fold Changes ± Standard Deviation, L1001 [13]: 0.6 ± 0.6 fold
- IC50 [14]: 2990 ± 180 nM
- Average Fold Changes ± Standard Deviation, E138K [14]: 13.7 ± 1.9 fold
- organ weights ([15]; rats (females only), mid and high doses, livers microscopically unremarkable): increased liver weights
- thyroid microscopic findings [15]: minimal to mild thyroid follicular cell hypertrophy/hyperplasia
- effects on food consumption or body weight [15]: No effects
- half-life at 1 μM ([16]; liver microsomes): 154 min
